# Experimental data published in patent US11952344B2, “Heterocyclic compound and use thereof” (TAKEDA PHARMACEUTICAL COMPANY LIMITED, priority 2019, dated 2024).
# Target: T1, Human NMDA (NR1/NR2B) Receptor (Homo sapiens, UniProt Q13224)
# T1 construct: host or cells: HEK293
# Test: NR2B Ca2+ influx assay
# Format: cell-based
# Conditions: 10 μM compound; HEK293 cells expressing GRIN1 and GRIN2B; glutamic acid/glycine-induced Ca2+ influx, Fluo-4 fluorescence; read-out: inhibitory rate (10 μM compound concentration)
# Description: Experimental Example 1 NR2B Ca^2+ Influx Assay
# To confirm the “antagonistic action on an NMDA receptor containing the NR2B subunit” of the compound of the present invention, human embryonic kidney cell expressing the “NMDA receptor composed of four subunits including 2 sets of heterodimers of NR1 and NR2B”, specifically HEK293 cell expressing human glutamate ionotropic receptor NMDA type subunit 1 (GRIN1) and human glutamate ionotropic receptor NMDA type subunit 2B (GRIN2B), was used and the activation suppressive effect (inhibitory activity) on the receptors by the compound of the present invention was measured.
# HEK293 cells that express GRIN1 and GRIN2B were purchased from ChanTest (Human NMDA (NR1/NR2B) Receptor-expressing, stable replicating cell line (HEK293) catalog No. CT6121).
# As an index of the NMDA receptor activation, intracellular calcium ion (Ca^2+) influx caused by the binding of glycine and glutamic acid with NR1 and NR2B, respectively, was used.
# HEK293 cells that express GRIN1 and GRIN2B were cultured in a cell culture flask in DMEM/F-12 (COSMO BIO, 10-092-CM) medium added with 10% FBS (fetal bovine serum, AusGene), 100 units/mL penicillin, 100 μg/mL streptomycin, 500 μg/mL neomycin, 100 μg/mL Zeocin (registered trade mark, Invitrogen), 5 μg/mL Blasticidin, in an incubator (37° C., 5% CO2).
# The cells were detached from flask with trypsin the day before the assay, suspended in a seeding medium (DMEM (Invitrogen, 31053) added with 10% FBS, 100 units/mL penicillin, 100 μg/mL streptomycin) at 8×10^5 cells/mL, seeded by 25 μL/well in a 384-well plate (Falcon, 356663) at 20000 cells/well, and cultured overnight in an incubator. On the day of the assay, tetracycline (Wako Pure Chemical Industries, Ltd., 209-16561) was diluted with the seeding medium at 2 μg/mL, added at 25 μL/well to the plate seeded with the cells, and cultured for 2 hr in an incubator. Thereafter, the medium was removed, and the cells were washed with 50 μL/well assay buffer (137 mM NaCl, 4 mM KCl, 1.8 mM CaCl2, 10 mM HEPES (pH 7.2), 10 mM Glucose, 0.1% BSA). Then, a loading buffer (assay buffer added with 2.5 μM Fluo-4AM, 2 mM Amaranth, 1 mM Tartrazine) was added at 25 μL/well, and incubation was performed in the incubator for 30 min, and at room temperature for 15 min. A solution (25 μL/well) of the Example compound diluted with the above-mentioned assay buffer at 30 μM (final concentration 10 μM) was added, and the cells were stood for 15 min at room temperature. Using FDSS7000EX/μCELL (Hamamatsu Photonics K.K.), 25 μL/well of an assay buffer containing 30 μM glutamic acid, 30 μM glycine was added, and the fluorescence signal at wavelength of Excitation 480 nm, Emission 540 nm was measured every 3 seconds for 5 min. The inhibitory activity was calculated as a relative activity value (inhibitory rate) that inhibits 100% of the cumulative value of the fluorescence value of a well added with an assay buffer free of glutamic acid, glycine, relative to the cumulative value of the fluorescence value of each well.
# T1 sequence (Q13224 27-1484, other chains not shown): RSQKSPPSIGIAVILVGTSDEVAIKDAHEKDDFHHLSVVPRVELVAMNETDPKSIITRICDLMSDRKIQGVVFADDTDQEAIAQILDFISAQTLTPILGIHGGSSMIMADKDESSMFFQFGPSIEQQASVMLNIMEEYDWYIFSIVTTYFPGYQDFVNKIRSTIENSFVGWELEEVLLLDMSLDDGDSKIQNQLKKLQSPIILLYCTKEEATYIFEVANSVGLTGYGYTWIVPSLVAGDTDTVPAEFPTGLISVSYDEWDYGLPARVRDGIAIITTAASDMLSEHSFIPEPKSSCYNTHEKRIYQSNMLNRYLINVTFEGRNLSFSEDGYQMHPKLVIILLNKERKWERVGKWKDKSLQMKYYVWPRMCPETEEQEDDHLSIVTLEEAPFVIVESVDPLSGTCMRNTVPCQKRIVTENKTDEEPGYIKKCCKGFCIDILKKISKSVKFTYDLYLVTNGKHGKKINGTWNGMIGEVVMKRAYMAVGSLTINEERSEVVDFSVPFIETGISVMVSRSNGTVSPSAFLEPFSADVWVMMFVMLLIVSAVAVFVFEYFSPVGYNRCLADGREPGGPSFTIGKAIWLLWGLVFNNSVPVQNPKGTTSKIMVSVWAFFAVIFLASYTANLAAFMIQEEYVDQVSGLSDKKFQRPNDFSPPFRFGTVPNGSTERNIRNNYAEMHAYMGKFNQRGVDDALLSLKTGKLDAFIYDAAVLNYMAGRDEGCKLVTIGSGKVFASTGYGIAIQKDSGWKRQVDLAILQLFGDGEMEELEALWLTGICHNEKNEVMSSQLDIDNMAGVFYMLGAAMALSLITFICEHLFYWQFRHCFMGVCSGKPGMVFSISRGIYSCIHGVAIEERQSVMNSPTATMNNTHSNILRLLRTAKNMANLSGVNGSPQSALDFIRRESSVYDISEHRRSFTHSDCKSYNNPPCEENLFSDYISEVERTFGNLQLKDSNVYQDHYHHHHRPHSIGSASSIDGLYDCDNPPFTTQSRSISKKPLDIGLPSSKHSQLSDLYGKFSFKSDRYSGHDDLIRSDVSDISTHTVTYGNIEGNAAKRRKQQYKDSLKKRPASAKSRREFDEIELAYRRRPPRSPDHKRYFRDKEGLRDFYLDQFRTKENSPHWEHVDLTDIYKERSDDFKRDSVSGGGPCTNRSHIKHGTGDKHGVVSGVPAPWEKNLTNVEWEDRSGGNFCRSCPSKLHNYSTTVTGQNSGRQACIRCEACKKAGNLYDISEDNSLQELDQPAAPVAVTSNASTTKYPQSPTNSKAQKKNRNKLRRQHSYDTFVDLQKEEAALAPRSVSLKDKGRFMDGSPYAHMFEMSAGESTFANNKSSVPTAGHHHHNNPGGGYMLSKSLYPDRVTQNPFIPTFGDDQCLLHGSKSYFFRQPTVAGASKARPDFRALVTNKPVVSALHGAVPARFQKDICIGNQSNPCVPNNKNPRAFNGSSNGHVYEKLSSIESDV
row,inhibition at 10 µM [%],Structure (SMILES)
1,92,"CCOc1ncncc1CNC(=O)c1cnc(OC(F)F)c(Cl)c1 [Example 88, 5-chloro-6-(difluoromethoxy)-N-[(4-ethoxypyrimidin-5-yl)methyl]pyridine-3-carboxamide]"
2,96,"O=C(NCc1cnccc1C1CC1)c1cnc(OC(F)F)c(F)c1 [Example 15, N-[(4-cyclopropylpyridin-3-yl)methyl]-6-(difluoromethoxy)-5-fluoropyridine-3-carboxamide]"
3,94,"COc1ccncc1CNC(=O)c1cnc(OC(F)F)c(F)c1 [Example 5, 6-(difluoromethoxy)-5-fluoro-N-[(4-methoxypyridin-3-yl)methyl]pyridine-3-carboxamide]"
4,91,"Cc1ccncc1CNC(=O)c1cc(F)c(OC(F)F)c(F)c1 [Example 55, 4-(difluoromethoxy)-3,5-difluoro-N-[(4-methylpyridin-3-yl)methyl]benzamide]"
5,95,"O=C(NCc1cncnc1C1CC1)c1cnc(OC(F)F)c(F)c1 [Example 23, N-[(4-cyclopropylpyrimidin-5-yl)methyl]-6-(difluoromethoxy)-5-fluoropyridine-3-carboxamide]"
6,98,"COc1ccncc1CNC(=O)c1cnc(OC(F)F)c(Cl)c1 [Example 17, 5-chloro-6-(difluoromethoxy)-N-[(4-methoxypyridin-3-yl)methyl]pyridine-3-carboxamide]"
7,95,"COc1ncncc1CNC(=O)c1ccc(OC(F)(F)F)c(F)c1 [Example 22, 3-fluoro-N-[(4-methoxypyrimidin-5-yl)methyl]-4-(trifluoromethoxy)benzamide]"
8,92,"COc1ncncc1CNC(=O)c1cnc(C2CC2)c(Cl)c1 [Example 83, 5-chloro-6-cyclopropyl-N-[(4-methoxypyrimidin-5-yl)methyl]pyridine-3-carboxamide]"
9,91,"COc1c(F)cc(C(=O)NCc2cnccc2C)cc1F [Example 71, 3,5-difluoro-4-methoxy-N-[(4-methylpyridin-3-yl)methyl]benzamide]"
10,87,"CCc1ncncc1CNC(=O)c1cnc(OC(F)F)c(F)c1 [Example 28, 6-(difluoromethoxy)-N-[(4-ethylpyrimidin-5-yl)methyl]-5-fluoropyridine-3-carboxamide]"
11,91,"CCOc1ncc(C(=O)NCc2cnccc2C)cc1F [Example 45, 6-ethoxy-5-fluoro-N-[(4-methylpyridin-3-yl)methyl]pyridine-3-carboxamide]"
12,92,"CC(F)(F)c1ncncc1CNC(=O)c1cnc(OC(F)F)c(F)c1 [Example 29, N-{[4-(1,1-difluoroethyl)-pyrimidin-5-yl]methyl}-6-(difluoromethoxy)-5-fluoropyridine-3-carboxamide]"
13,87,"CCOc1c(F)cc(C(=O)NCc2cnccc2C)cc1F [Example 72, 4-ethoxy-3,5-difluoro-N-[(4-methylpyridin-3-yl)methyl]benzamide]"
14,95,"Cc1ccncc1CNC(=O)c1cnc(OC(F)F)c(Cl)c1 [Example 27, 5-chloro-6-(difluoromethoxy)-N-[(4-methylpyridin-3-yl)methyl]pyridine-3-carboxamide]"
15,90,"CC(F)(F)c1ccncc1CNC(=O)c1cnc(OC(F)F)c(F)c1 [Example 43, N-{[4-(1,1-difluoroethyl)pyridin-3-yl]methyl}-6-(difluoromethoxy)-5-fluoropyridine-3-carboxamide]"
16,93,"Cc1ccncc1CNC(=O)c1ccc(C(F)F)c(Cl)c1 [Example 59, 3-chloro-4-(difluoromethyl)-N-[(4-methylpyridin-3-yl)methyl]benzamide]"
17,87,"COc1ncncc1CNC(=O)c1cc(F)c(OC)c(F)c1 [Example 62, 3,5-difluoro-4-methoxy-N-[(4-methoxypyrimidin-5-yl)methyl]benzamide]"

row,inhibition at 10 µM [%],Structure (SMILES)
1,90,"CC(F)(F)c1ncc(C(=O)NCc2cncnc2OC2CC2)cc1Cl [Example 95, 5-chloro-N-{[4-(cyclopropyloxy)pyrimidin-5-yl]methyl}-6-(1,1-difluoroethyl)pyridine-3-carboxamide]"
2,92,"COc1ccncc1CNC(=O)c1cc(F)c(OC)c(F)c1 [Example 89, 3,5-difluoro-4-methoxy-N-[(4-methoxypyridin-3-yl)methyl]benzamide]"
3,95,"CCOc1ccncc1CNC(=O)c1ccc(OC(F)F)c(F)c1 [Example 11, 4-(difluoromethoxy)-N-[(4-ethoxypyridin-3-yl)methyl]-3-fluorobenzamide]"
4,94,"CC(C)Oc1ncncc1CNC(=O)c1cnc(OC(F)F)c(F)c1 [Example 20, 6-(difluoromethoxy)-5-fluoro-N-({4-[(propan-2-yl)oxy]pyrimidin-5-yl}methyl)pyridine-3-carboxamide]"
5,95,"COc1cncc(CNC(=O)c2ccc(OC(F)(F)F)cc2)c1 [Example 1, N-[(5-methoxypyridin-3-yl)methyl]-4-(trifluoromethoxy)benzamide]"
6,94,"Cc1c(F)cncc1CNC(=O)c1ccc(OC(F)F)c(F)c1 [Example 69, 4-(difiuoromethoxy)-3-fluoro-N-[(5-fluoro-4-methylpyridin-3-yl)methyl]benzamide]"
7,92,"Cc1c(F)cncc1CNC(=O)c1cnc(C2CC2(F)F)c(F)c1 (stereo not shown) [Example 103, 6-(2,2-difluorocyclopropyl)-5-fluoro-N-[(5-fluoro-4-methylpyridin-3-yl)methyl]pyridine-3-carboxamide]"
8,92,"Cc1ncncc1CNC(=O)c1ccc(OC(F)(F)F)c(F)c1 [Example 30, 3-fluoro-N-[(4-methylpyrimidin-5-yl)methyl]-4-(trifluoromethoxy)-benzamide]"
9,97,"O=C(NCc1cncc(F)c1OC1CC1)c1cnc(OC(F)F)c(F)c1 [Example 39, N-{[4-(cyclopropyloxy)-5-fluoropyridin-3-yl]methyl}-6-(difluoromethoxy)-5-fluoropyridine-3-carboxamide]"
10,96,"Cc1ccncc1CNC(=O)c1cnc(OC(F)(F)F)c(F)c1 [Example 35, 5-fluoro-N-[(4-methylpyridin-3-yl)methyl]-6-(trifluoromethoxy)-pyridine-3-carboxamide]"
11,97,"Cc1c(Cl)cncc1CNC(=O)c1cnc(OC(F)F)c(F)c1 [Example 47, N-[(5-chloro-4-methylpyridin-3-yl)methyl]-6-(difluoromethoxy)-5-fluoropyridine-3-carboxamide]"
12,84,"O=C(NCc1cncnc1C1CC1(F)F)c1cnc(OC(F)F)c(F)c1 (stereo not shown) [Example 37, N-{[4-(2,2-difluorocyclopropyl)-pyrimidin-5-yl]methyl}-6-(difluoromethoxy)-5-fluoropyridine-3-carboxamide]"
13,79,"COc1ncc(C(=O)NCc2cnccc2C)cc1F [Example 44, 5-fluoro-6-methoxy-N-[(4-methylpyridin-3-yl)methyl]pyridine-3-carboxamide]"
14,86,"COc1ncncc1CNC(=O)c1cnc(C(C)(F)F)c(F)c1 [Example 92, 6-(1,1-difluoroethyl)-5-fluoro-N-[(4-methoxypyrimidin-5-yl)methyl]pyridine-3-carboxamide]"
15,95,"CCOc1ncncc1CNC(=O)c1cnc(OC(F)F)c(F)c1 [Example 24, 6-(difluoromethoxy)-N-[(4-ethoxypyrimidin-5-yl)methyl]-5-fluoropyridine-3-carboxamide]"
16,91,"COc1ncncc1CNC(=O)c1cc(F)c(OC)c(Cl)c1 [Example 84, 3-chloro-5-fluoro-4-methoxy-N-[(4-methoxypyrimidin-5-yl)methyl]benzainide]"
17,95,"COc1c(F)cncc1CNC(=O)c1cnc(OC(F)F)c(F)c1 [Example 6, 6-(difluoromethoxy)-5-fluoro-N-[(5-fluoro-4-methoxypyridin-3-yl)methyl]pyridine-3-carboxamide]"
